{
  "source": "patent US7803559B1",
  "about": "“Protein aggregation regulators” (The Regents of the University of CA, priority 2003, dated 2010)",
  "note": "Structures can show the parent of a compound that is named as a salt.",
  "data": [
    {"tested_on": "ARN127(65)CFP/YFP", "experiment": "Secondary screen using the AR FRET assay", "assay_type": "cell-based, human", "conditions": "not given", "method": "(§1) Selected candidate compounds and/or libraries of compounds were screened as follows. Daughter plates were created in duplicate from the 384-well microtiter plates that contained the compounds at a concentration of 80 μg/ml. […] To screen a library, HEK293 cells stably expressing RFP were plated in 10 cm plates to obtain ˜80% confluency on the day of transfection. Each plate was transfected with 2 μg of ARN127(65)CFP/YFP each, and 0.7 μg p6RGRΔ using 50 μL Plus Reagent™ and 76 μL Lipofectamine™ according to manufacturer's protocol (Invitrogen). After 3 hours, complete medium was added and the plates were incubated further for 3 hours. […] The cells were then cultured for ˜48 hours to allow aggregate formation. After fixing the cells FRET signal was measured using a SAFIRE Fluorescence Plate Reader (Tecan, Inc.) according to methods described above. Several internal controls were used to standardize each experiment. Mock transfected cells were used to control for background autofluorescence and light scattering by mammalian cells. To control for CFP bleedthrough and crossover excitation of YFP, additional wells contained cells expressing ARN127(25)CFP or ARN127(25)YFP alone. RFP was measured to control for non-specific effects on steady-state protein levels. ARN127(25)CFP/YFP expression served as a reference point for background FRET levels without aggregation (a theoretical maximum effect on aggregation inhibition). FRET measurements for each experiment were thus scaled between 100% (cells with no drug treatment) and 0% (FRET levels from unexpanded protein).\n(§2) Selected candidate compounds from the primary screen of all three libraries were assayed again in a secondary screen using the AR FRET assay.\n(§3) Finally, the role of F-actin in preventing polyglutamine aggregation was investigated by treating cells with two agents that prevent actin depolymerization: phalloidin and jasplakinolide.", "units": {"Max % Inhibition": "%"}, "values": [
      {"compound": "(2-hydroxyethyl) trimethylammonium chloride carbamate [Carbachol]", "Max % Inhibition": 20}
    ]},
    {"tested_on": "ARN127(65)CFP/YFP", "experiment": "Secondary screen using the AR FRET assay", "assay_type": "cell-based, human", "conditions": "agents that prevent actin depolymerization, Table 5", "method": "as §1, §2, §3", "units": {"Max % Inhibition": "%"}, "values": [
      {"compound": "C/C1=C\\[C@H](C)C[C@H](C)OC(=O)C[C@H](c2ccc(O)cc2)NC(=O)[C@@H](Cc2c(Br)[nH]c3ccccc23)N(C)C(=O)[C@H](C)NC(=O)[C@@H](C)C1", "note": "[Jasplakinolide]", "Max % Inhibition": 30},
      {"compound": "Phalloidin", "Max % Inhibition": 35}
    ]},
    {"tested_on": "ARN127(65)CFP/YFP", "experiment": "Secondary screen using the AR FRET assay", "assay_type": "cell-based, human", "conditions": "secondary screen, AR FRET assay, Table 3", "method": "as §1, §2, §3", "units": {"Max % Inhibition": "%"}, "values": [
      {"compound": "O=C1CC(c2ccc(O)cc2)Oc2cc(O)cc(O)c21", "note": "(racemic) [Naringenin, (±)-2,3-Dihydro-5,7-dihydroxy-2-(4-hydroxyphenyl)-4H-1-benzopyran-4-one]", "Max % Inhibition": 19},
      {"compound": "COc1ccc([C@@H]2Sc3ccccc3N(CCN(C)C)C(=O)[C@@H]2OC(C)=O)cc1.Cl", "note": "(relative stereo) [Diltiazem HCl, (2S,3S)-(+)-cis-3-Acetoxy-5-(2-dimethylaminoethyl)-2,3-dihydro-2-(4-methoxyphenyl)-1,5-benzothiazepin-4(5H)-one hydrochloride]", "Max % Inhibition": 22},
      {"compound": "COc1ccc2c(c1OC)C(=O)O[C@H]2[C@@H]1c2cc3c(cc2CCN1C)OCO3", "note": "[1S,9R-beta hydrastine, 1S,9R-(+)-beta hydrastine]", "Max % Inhibition": 18},
      {"compound": "CCCCC/C=C\\C/C=C\\C/C=C\\C/C=C\\CCCC(=O)O", "note": "[Arachidonic acid, cis,cis,cis,cis-5,8,11,14-Eicosatetraenoic aci]", "Max % Inhibition": 19},
      {"compound": "CNCCc1ccccn1.Cl.Cl", "note": "[Betahistine hydrochloride, N-methyl-N-(2-pyridin-2-ylethyl)amine dihydrochloride]", "Max % Inhibition": 19},
      {"compound": "NS(=O)(=O)c1cc2c(cc1Cl)N=CNS2(=O)=O", "note": "[Chlorothiazide, 6-Chloro-2H-1,2,4-benzothiadiazine-7-sulfonamide 1,1-dioxide]", "Max % Inhibition": 19},
      {"compound": "COc1cc(C)c(C(=O)Oc2cc(C)c(C(=O)O)c(O)c2C)c(OC)c1C", "note": "[Diffractic acid, 4-[(2,4-dimethoxy-3,6-dimethylbenzoyl)-oxy]-2-hydroxy-3,6-dimethylbenzoic acid]", "Max % Inhibition": 20},
      {"compound": "O=C(O)c1ccccc1OP(=O)(O)O", "note": "[Fosfosal, 2-phosphonooxybenzoic acid]", "Max % Inhibition": 23},
      {"compound": "CC1=CC(=O)C2=C(C)CCC3[C@H](C)C(=O)O[C@@H]3[C@H]12", "note": "(stereo partly drawn) [Leucodin, (3S,9aR,9bS)-3,6,9-trimethyl-3,3a,4,5,9a,9b-hexahydroazuleno-[4,5-b]furan-2,7-dione]", "Max % Inhibition": 23},
      {"compound": "Cc1cc(-c2ccccc2)nnc1NCCN1CCOCC1", "note": "[Minaprine HCl, N-(4-Methyl-6-phenyl-3-pyridazinyl)-4-morpholineethanamin]", "Max % Inhibition": 18},
      {"compound": "CCOC(=O)Nc1c[n+](N2CCOCC2)no1", "note": "[Molsidomine, N-(Ethoxycarbonyl)-3-(4-morpholino)sydnone imine]", "Max % Inhibition": 20},
      {"compound": "CC(C)(C)NCC(O)COc1cccc2c1CC(O)C(O)C2", "note": "(centres unmarked) [Nadolol]", "Max % Inhibition": 19},
      {"compound": "DL-alanine,2,4-chlorophenyl-1,1-dimethylethyl ester [Alaproclate]", "Max % Inhibition": 17},
      {"compound": "N,N-bis(4-aminobutyl)amine [Spermidine HCl]", "Max % Inhibition": 19}
    ]}
  ]
}
